The values below come from US8871741B2, “Inhibition of TNF-α induced activation of NFKB by pentosan polysulfate” (Icahn School of Medicine at Mount Sinai, priority 2010, dated 2014).

The nature of data set [1]: Plasma lipid and lipoprotein analyses in WHHL rabbits. It counts as in vivo, rabbit. Particulars: for Free cholesterol / Phospholipids / Total cholesterol / Triglycerides: mean ± SEM, 5 animals. As for the experimental part:
Blood was drawn from rabbits after a 12-hour fast into tubes containing EDTA at the beginning of the study, every two weeks during treatment with the atherogenic diet, and at the end of the study. The total cholesterol and triglyceride concentrations (Sigma) as well as unesterified cholesterol and phospholipids (Wako Chemicals, Richmond, Va.) were determined on plasma samples using enzymatic methods on a Hitachi 911 Autoanalyzer (Boehringer Mannheim). Post-heparin hepatic lipase activity was determined as described (Iverius P H, Brunzell J D. Am J Physiol 1985; 249: E107-E114).

Data set [2] concerns MMP-2/MMP-9. Put plainly: Net MMP activity in aortic extracts, synthetic colorimetric substrate. The data set is classed as in vivo, rabbit. The note with it: aortic arch extracts, WHHL rabbits treated with PPS; P<0.05. On the procedure: (§1) MMP activity in aortic extracts and conditioned media from monocytes was assessed, as previously described (Jacot T A, et al., Lab Invest. 1996; 75:791-79). Briefly, aortic segments were homogenized and extracted in RIPA buffer (25 mM Tris, pH 7.4, 150 mM KCl, 5 mM EDTA, 1% Nonidet P-40, 0.5% sodium deoxycholate, and 0.1% SDS). Insoluble material was precipitated by centrifugation, and soluble extracts were collected and stored at −20° C. for further analysis. For in vitro experiments, cell supernatants were centrifuged to remove cellular debris, and diluted appropriately to normalize for cell number. Aortic extracts and conditioned media were then mixed with sample buffer (1% SDS, 0.08 M Tris pH 6.8, 4% glycerol, and 0.006% bromophenol blue), and loaded onto a 10% gelatin polyacrylamide gel, and processed as described (Jacot T A, et al., Lab Invest. 1996; 75:791-79). For reverse zymography, samples were loaded onto a 15% gelatin polyacrylamide gel containing 0.5% porcine gelatin and 6 μg recombinant gelatinase A, and processed as described (Elliot S J, et al., J Am Soc Nephrol. 1999; 10: 62-68).
MMP-2/MMP-9 net activity in aortic extracts was evaluated by using a synthetic colorimetric substrate [Ac-Pro-Leu-Gly-(2-mercapto-4-methylpentanoyl)-Leu-Gly-Oet; Calbiochem, Cambridge, Mass.], according to the manufacturer's directions.

In data set [3] the test system is TIMP-1, -2, and -3. Put plainly: Reverse zymography of aortic extracts. The data set is classed as in vivo, rabbit. The note with it: PPS-treated WHHL rabbits, 75 days HC-diet. As for the experimental part:
as §1

For data set [4], the system named is TNFα mRNA. Put plainly: PCR of TNFα mRNA in kidney. The data set is classed as in vivo, mouse. Particulars: PPS treated 22 month-old diabetic mice, up to 40 PCR cycles. As for the experimental part: mRNA levels were corrected by the levels of β-actin or GAPDH mRNA. The expression of TNFα mRNA in kidney was determined by both a real time and a regular PCR using the primer of forward, 5′-[…]-3′ (SEQ ID NO: 17), reverse, 5′-[…]-3′ (SEQ ID NO: 18). GAPDH and β-actin mRNA levels were measured in the same sample.

In data set [5] the test system is MCP-1 and RANTES. In words: TNFα stimulated MCP-1 and RANTES production by proximal tubular cells, ELISA. The data set is classed as cell-based, mouse. Particulars: PPS 200 μg/ml pretreatment, TNFα 10 ng/ml, p<0.01 vs. TNFα alone. As for the experimental part: A proximal tubular cell line obtained from mice transgenic for SV40 T antigen was grown in DMEM containing 10% FBS. For the measurement of TNFα-stimulated gene expression, 1×10^5 proximal tubular cells were transferred to each well of a 6-well-plate. After placing the cells in 0.1% FBS medium for 24 hours, 10 ng/ml of TNFα was added to test wells. Total RNA was isolated from all wells 4 hours later. MCP-1, RANTES, CXCL1, MIP-2, ICAM-1, and iNOS mRNA levels were determined by real-time PCR as described above and corrected by β-actin mRNA levels. TNFα stimulated MCP-1 and RANTES production and release into the medium was measured in TNFα (10 ng/ml) treated and control cells at 24 hours. The amount of MCP-1 or RANTES in the medium was measured by ELISA (Invitrogen Corporation (Carlsband, Calif.).
To determine the effect of PPS on TNFα induced upregulation of proinflammatory genes, proximal tubular cells were pre-treated with PPS (200 μg/ml) for 1 hour before the addition of TNFα (10 ng/ml). MCP-1, RANTES, CXCL1, MIP-2, ICAM-1, and iNOS mRNA levels were determined 4 hours later by real-time PCR. MCP-1 and RANTES production was also measured.

Data set [6] has as its system podocytes. Put plainly: Albumin permeability of podocyte monolayers (FITC-labeled BSA flux). The note with it: podocyte monolayer. It counts as cell-based. As for the experimental part:
1×10^5 podocytes were seeded onto collagen-coated transwell filters ([…] pore-size, Corning, N.Y., N.Y.) placed in the top chamber of each well of a 24-well plate. After cells reached confluence, some wells of cells were treated with TNFα (20 ng/ml), PPS (400 μg/ml), or PPS plus TNFα in 2% FBS medium for 8 hours. Then the medium from both the top and bottom chamber was completely removed, cells were washed twice with PBS and the top chamber was refilled with 0.2 ml 2% FBS medium supplemented with 0.5 mg/ml FITC-labeled BSA (Sigma Aldrich, St Louis, […].), while the bottom chamber was refilled with 0.6 ml 2% FBS medium supplemented with 0.5 mg/ml unlabeled BSA. At different time points, 100 μl aliquots were collected from the bottom chamber and fluorescence was measured by a fluorescence spectrophotometer (485 nm excitation, 535 nm emission). The concentration of FITC-BSA passing through the monolayer was determined by reference to a set of standard dilutions of FITC-BSA. The value of albumin flux through untreated monolayer was arbitrarily defined as 100%.

The test system of data set [7] is WHHL rabbits. The note with it: rabbit, in vivo, po.
Procedure: 3-month-old female WHHL rabbits, obtained from the Institute for Experimental Animals, Kobe University School of Medicine (Shiomi M, et al., Arterioscler Thromb 1994; 14: 931-937), were fed a standard diet supplemented with 0.5% cholesterol for 45 days. […] Twenty rabbits with established lesions were randomized into two groups, one (PPS group) receiving PPS (30 mg/kg BW daily) added to the drinking water, and the other (Control group) receiving tap water for the next 30 days. […] After 30 days, the rabbits were anesthetized with ketamine hydrochloride and xylazine (60 mg and 6 mg/kg BW, respectively), and exsanguinated. Five from each group were perfusion-fixed with 4% phosphate-buffered formaldehyde solution through the femoral vein.
Where [8] appears, read: 45 days HC-diet, PPS group before start of PPS.
Setting [9] is: 75 days HC-diet, PPS in drinking water for the last 30 days.
The mark [10] stands for this setting: Baseline (3 months of age), PPS group before treatment.

Entries after “also recorded” stand apart in the source; their conditions may differ.

Regarding pentosan polysulfate [PPS], in data set [1] (setting [8]), the Free cholesterol is 1038.52 ± 128.80 mg/dL, the Phospholipids was found to be 1241.09 ± 142.75 mg/dL, the Total cholesterol turned out to be 2133.28 ± 85.04 mg/dL and the Triglycerides amounted to 331.28 ± 86.61 mg/dL. In data set [1] (setting [9]), this substance came in with a Free cholesterol of 785.46 ± 93.22 mg/dL, a Phospholipids of 878.17 ± 107.98 mg/dL, a Total cholesterol of 1565.40 ± 212.07 mg/dL and a Triglycerides of 184.10 ± 30.19 mg/dL. In data set [1] (setting [10]), this substance showed a Free cholesterol of 282.92 ± 13.03 mg/dL, a Phospholipids of 574.59 ± 26.44 mg/dL, a Total cholesterol of 901.18 ± 50.30 mg/dL and a Triglycerides of 762.91 ± 72.13 mg/dL. The “plasma lipid levels after 75 days of HC-diet versus 45 days” value in data set [1] (PPS-treated WHHL rabbits, a trend towards reduction was observed) is “not significantly different”. Also, the “Net MMP-2/MMP-9 activity, reduction compared to water-treated animals” value in data set [2] worked out at 27.74±4.32%. Also, the “activity of TIMP-1, -2, and -3 in aortic extracts” value in data set [3] was “marked increase”. Moreover, in data set [4], the “TNFα mRNA expression in the kidneys” value is “completely prevented the upregulation; also recorded: absent”. Also, in data set [5], the “TNFα stimulated MCP-1 and RANTES protein production” value was “decreased”. In data set [6] (PPS 400 μg/ml plus TNFα 20 ng/ml, FIG. 18 legend), the “inhibition of the flux of FITC-labeled BSA” value turned out to be 34%. In addition, in data set [6] (PPS 400 μg/ml, TNFα 20 ng/ml), the “reduction of the TNFα-induced increase in FITC-labeled albumin passage” value was approximately 60%. In data set [7], the bleeding entry is given as “not observed”.
